Common to all, as to type: in vivo
Experiment [1] relates to velvetleaf (Abutilon theophrasti Medic.). The experiment in a line: Test Example 14: pot test, soil and foliar treatment, visual growth inhibition. The settings on record: soil treatment and foliar treatment, 31st day after treatment, read-out: Growth inhibition rate (%) of velvetleaf Measured value. An excerpt:
Upland field soil was put into a 1/1,000,000 ha pot, and seeds of velvetleaf (Abutilon theophrasti Medic.) were sown. When the velvetleaf reached 4.0 to 4.3-leaf stage, seeds of velvetleaf were further sown in the same pot assuming conditions such that weeds would later grow. On the next day, predetermined amounts of ONEHOPE NYUZAI (tradename), Click (tradename), Callisto (tradename), Mikado (tradename), a wettable powder containing bicyclopyrone as an active ingredient and Clio (tradename) were diluted with water in an amount corresponding to 300 L/ha and applied for soil treatment and for foliar treatment by a small sprayer.
On the 31 st day after treatment, the state of growth of the velvetleaf was visually observed to determine the growth inhibition rate (%). The growth inhibition rate (%) (measured value) and the growth inhibition rate (%) calculated in the same manner as in the above Test Example 1 are shown in Table 14.

The subject of experiment [2] is korean lespedeza (Kummerowia stipulacea (Maxim.) Makino). The experiment in a line: Test Example 6: pot test, soil treatment, visual growth inhibition. The settings on record: soil treatment, 14th day after treatment, read-out: Growth inhibition rate (%) of korean lespedeza Measured value. As to the method:
Upland field soil was put into a 1/300,000 ha pot, and seeds of korean lespedeza (Kummerowia stipulacea (Maxim.) Makino) were sown. On the next day, predetermined amounts of ONEHOPE NYUZAI (tradename), Click (tradename), Mikado (tradename) and a wettable powder containing bicyclopyrone prepared in accordance with a conventional formulation method were diluted with water (in an amount corresponding to 1,000 L/ha) and applied for soil treatment by a small sprayer.
On the 14th day after treatment, the state of growth of the korean lespedeza was visually observed to determine the growth inhibition rate (%). The growth inhibition rate (%) (measured value) and the growth inhibition rate (%) calculated in the same manner as in the above Test Example 1 are shown in Table 6.

Experiment [3] deals with Japanese millet (Echinochloa utilis Ohwi et Yabuno). The experiment in a line: Test Example 9: pot test, soil treatment, visual growth inhibition. The settings on record: soil treatment, 28th day after treatment, read-out: Growth inhibition rate (%) of Japanese millet Measured value. As to the method: Upland field soil was put into a 1/300,000 ha pot, and seeds of Japanese millet (Echinochloa utilis Ohwi et Yabuno) were sown. On the next day, predetermined amounts of ONEHOPE NYUZAI (tradename), Click (tradename), Mikado (tradename) and a wettable powder containing bicyclopyrone prepared in accordance with a conventional formulation method were diluted with water (in an amount corresponding to 1,000 L/ha) and applied for soil treatment by a small sprayer.
On the 28th day after treatment, the state of growth of the Japanese millet was visually observed to determine the growth inhibition rate (%). The growth inhibition rate (%) (measured value) and the growth inhibition rate (%) calculated in the same manner as in the above Test Example 1 are shown in Table 9.

Experiment [4] has as its system green foxtail (Setaria viridis (L.) P.Beauv.). In words: Test Example 3: pot test, soil treatment, visual growth inhibition. The settings on record: soil treatment, 27th day after treatment, read-out: Growth inhibition rate (%) of green foxtail Measured value. As to the method: Upland field soil was put into a 1/1,000,000 ha pot, and seeds of green foxtail (Setaria viridis (L.) P.Beauv.) were sown. On the next day, predetermined amounts of ONEHOPE NYUZAI (tradename), Click (tradename) and SC formulation containing sulcotrione as an active ingredient (tradename: Mikado, manufactured by Bayer CropScience) were diluted with water (in an amount corresponding to 1,000 L/ha) and applied for soil treatment by a small sprayer.
On the 27th day after treatment, the state of growth of the green foxtail was visually observed to determine the growth inhibition rate (%). The growth inhibition rate (%) (measured value) and the growth inhibition rate (%) calculated in the same manner as in the above Test Example 1 are shown in Table 3.

Experiment [5] concerns guinea grass (Panicum maximum Jacq.). The experiment in a line: Test Example 15: pot test, soil and foliar treatment, visual growth inhibition. The settings on record: Megathyrsus maximus, 31st day after treatment, read-out: Growth inhibition rate (%) of guinea grass Measured value. As to the method:
Upland field soil was put into a 1/1,000,000 ha pot, and seeds of guinea grass (Panicum maximum Jacq.) were sown. When the guinea grass reached 5.2 to 6.0-leaf stage, seeds of guinea grass were further sown in the same pot assuming conditions such that weeds would later grow. On the next day, predetermined amounts of ONEHOPE NYUZAI (tradename), Click (tradename), Spectrum (tradename) and Cadou (tradename) were diluted with water in an amount corresponding to 300 L/ha and applied for soil treatment and for foliar treatment by a small sprayer.
On the 31 st day after treatment, the state of growth of the guinea grass was visually observed to determine the growth inhibition rate (%). The growth inhibition rate (%) (measured value) and the growth inhibition rate (%) calculated in the same manner as in the above Test Example 1 are shown in Table 15.

Experiment [6] shares this test system. In words: Test Example 17: pot test, soil and foliar treatment, visual growth inhibition. The settings on record: Megathyrsus maximus, 29th day after treatment, read-out: Growth inhibition rate (%) of guinea grass Measured value. The protocol: Upland field soil was put into a 1/1,000,000 ha pot, and seeds of guinea grass (Panicum maximum Jacq.) were sown. When the guinea grass reached 5.2 to 6.0-leaf stage, seeds of guinea grass were further sown in the same pot assuming conditions such that weeds would later grow. Three days later, predetermined amounts of ONEHOPE NYUZAI (tradename), Click (tradename) and Spectrum (tradename) were diluted with water in an amount corresponding to 300 L/ha and applied for soil treatment and for foliar treatment by a small sprayer.
On the 29th day after treatment, the state of growth of the guinea grass was visually observed to determine the growth inhibition rate (%). The growth inhibition rate (%) (measured value) and the growth inhibition rate (%) calculated in the same manner as in the above Test Example 1 are shown in Table 17.

The test system of experiment [7] is rostrate sesbania (Sesbania rostrata Bremek. & Oberm.). The experiment in a line: Test Example 8: pot test, soil treatment, visual growth inhibition. The settings on record: soil treatment, 28th day after treatment, read-out: Growth inhibition rate (%) of rostrate sesbania Measured value. As to the method: Upland field soil was put into a 1/300,000 ha pot, and seeds of rostrate sesbania (Sesbania rostrata Bremek. & Oberm.) were sown. On the next day, predetermined amounts of ONEHOPE NYUZAI (tradename), Click (tradename), Spectrum (tradename) and Clio (tradename) were diluted with water (in an amount corresponding to 1,000 L/ha) and applied for soil treatment by a small sprayer.
On the 28th day after treatment, the state of growth of the rostrate sesbania was visually observed to determine the growth inhibition rate (%). The growth inhibition rate (%) (measured value) and the growth inhibition rate (%) calculated in the same manner as in the above Test Example 1 are shown in Table 8.

Broadly, the inhibition is the relative decrease from the control value, in per cent. For `COc1cc(OC)nc(NC(=O)NS(=O)(=O)c2ncccc2C(=O)N(C)C)n1` [Nicosulfuron, 2-(4,6-dimethoxypyrimidin-2-ylcarbamoylsulfamoyl)-N,N-dimethylnicotinamide], the results for the inhibition at 20 g/ha in experiment [1] (20 g/ha) and in experiment [5] (20 g/ha) were 3% and 46%, respectively. Moreover, the inhibition at 60 g/ha in experiment [1] (60 g/ha) was determined as 11%; in experiment [5] (60 g/ha), 83%. For the same molecule, the inhibition at 10 g/ha in experiment [2] (10 g/ha), in experiment [3] (10 g/ha) and in experiment [7] (10 g/ha) was 0% each time. Further, in experiment [2] (100 g/ha), the inhibition at 100 g/ha worked out at 0%. The figures for the inhibition at 30 g/ha in experiment [4] (30 g/ha) and in experiment [6] (30 g/ha) were 60% and 38%, respectively.

Turning to `CCNc1nc(Cl)nc(NC(C)(C)C)n1` [Terbuthylazine, N^2-tert-butyl-6-chloro-N^4-ethyl-1,3,5-triazine-2,4-diamine], the inhibition at 400 g/ha in experiment [1] (400 g/ha) worked out at 0%; in experiment [5] (400 g/ha) it was 5%. In addition, the inhibition at 1200 g/ha was 0% in experiment [1] (1200 g/ha) and 23% in experiment [5] (1200 g/ha). The inhibition at 200 g/ha in experiment [2] (200 g/ha) is 10%. The inhibition at 2000 g/ha is 25% in experiment [2] (2000 g/ha), 65% in experiment [3] (2000 g/ha) and 0% in experiment [7] (2000 g/ha). Also, the inhibition at 500 g/ha came out at 18% in experiment [4] (500 g/ha) and 0% in experiment [6] (500 g/ha).

Source of the values: patent EP2832223A1, “HERBICIDAL COMPOSITION” (Ishihara Sangyo Kaisha, Ltd., priority 2012, dated 2013).
